Assay results published in patent publication US11701361B2, “p110-delta inhibitors treat and prevent autoimmunity while sparing the ability to mount an immune response to exogenous immunogens” (THE REGENTS OF THE UNIVERSITY OF COLORADO, priority 2018, dated 2023).

Tested on: VH125.NOD mice
Assay: T1D disease progression in VH125.NOD mice on idelalisib chow
Type: in vivo, mouse
Settings: female VH125.NOD mice, vs vehicle control chow
From the text: Except where otherwise indicated, 6-16 week old mice were used in all experiments. Both male and female mice were used, but experiments were sex matched and both sexes gave identical results, with the exception of only female mice being used in the VH125.NOD experiments as female mice develop accelerated disease. hCD20-TamCre animals (Khalil, et al. Science 336: 1178-81) were intercrossed with mice carrying the rosa26-flox-STOP-YFP allele (Srinivas, et al., BMC Dev. Biol. 1:4), generating mice in which YFP is expressed in B cells upon Cre activation. These mice were crossed with Ars/A1 (Benschop, et al., Immunity 14: 33-43) transgenic mice to generate hCD20-TamCre×rosa26-flox-STOP-YFP×Ars/A1 mice. B cells from these mice will be referred to as WT Ars/A1. […]
Diet dose (DD) is calculated by multiplying the single daily dose (SD) by the body weight of a mouse (BW) and dividing that by the daily food intake (FI) [DD=(SD×BW)/FI]. […]
To test this possibility, immediately post-weaning, female VH125.NOD mice were placed on vehicle control chow to allow habituation to the diet. […] Disease progression was monitored based on blood glucose levels and visible signs of disease (i.e., hunching, scruffy fur, excessive urination).

Q: Which “disease progression (blood glucose levels and visible signs of disease)” value (0.9375 mg/kg idelalisib chow from pre-diabetic blood glucose readings) does the source give for `CC[C@H](Nc1ncnc2nc[nH]c12)c1nc2cccc(F)c2c(=O)n1-c1ccccc1` [idelalisib, 5-fluoro-3-phenyl-2-[(1S)-1-(7H-purin-6-ylamino)propyl]-4(3H)-quinazolinone] here?
A: The value was “significantly delayed”.

Q: What about the survival (0.9375 mg/kg idelalisib chow) of the same compound?
A: Its survival is “extended”.
